# Source: patent EP3222712A1, “ALCOHOL DEHYDROGENASE FROM PICHIA PASTORIS AND USE THEREOF” (priority 2016, dated 2017)
# Assays:
# [1] = tested on: alcohol dehydrogenase from Pichia pastoris (PPADH); experiment: biotransformation by purified PPADH with GDH co-factor regeneration, gas chromatography; assay type: biochemical; details: 2 hours reaction time
# [2] = target: T1, alcohol dehydrogenase from Pichia pastoris (PPADH) (Komagataella phaffii, UniProt C4R4L0); experiment: photometric assay, reduction of aldehydes and ketones by purified PPADH (NADPH, 340 nm); assay type: biochemical, Pichia pastoris GS 115; details: for relative activity: 38.6 U/mg with benzaldehyde set to 100%; for specific activity: purified PPADH, 10 mM substrate (sample 4: 20 mM), 0.2 mM NADPH, tris HCl pH 7, 25°C
# T1 sequence (C4R4L0 entry or part of it): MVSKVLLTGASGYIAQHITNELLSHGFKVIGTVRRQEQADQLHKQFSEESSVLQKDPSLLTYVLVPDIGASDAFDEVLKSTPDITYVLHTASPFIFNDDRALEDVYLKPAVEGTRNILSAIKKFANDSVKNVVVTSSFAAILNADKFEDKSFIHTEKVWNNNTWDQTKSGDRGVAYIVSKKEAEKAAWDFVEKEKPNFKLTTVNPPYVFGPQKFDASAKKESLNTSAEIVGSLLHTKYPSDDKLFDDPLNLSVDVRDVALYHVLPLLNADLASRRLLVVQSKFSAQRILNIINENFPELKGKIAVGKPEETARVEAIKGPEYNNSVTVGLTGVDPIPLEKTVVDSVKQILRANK
# Experimental: (§1) In a first step, crude extract containing recombinant alcohol dehydrogenase from Pichia pastoris via cell disruption of E. coli BL21(DE3) overexpressing in vector pET28a-PPADH carrying an N-terminal 6xHis tag. Cells were resuspended in 10 mM tris HCl buffer (pH 7) to yield a 25% cell suspension and were disrupted by sonification under cooling. Three cycles of 2 min of 25% power output followed by 1 min cooling were used. After repeated centrifugation a cell-free crude extract was obtained. Afterwards the PPADH was purified as described in example 3c).
# (§2) Determination of the enzymatic activity of the purified PPADH can be determined via a oxidation or reduction reaction. For determination of the reduction the following compounds were used: tris HCl buffer (100 mM, pH 7), 0.2 mM NADPH, 10 mM substrate selected from the aldehydes and ketones as given in Table 2 and 10 µl enzyme (purified PPADH). For determination of the oxidation the following compounds were used: tris HCl buffer (100 mM, pH 9), 0.2 mM NADP^+, 10 mM substrate selected from the alcohols as given in Table 3 and 10 µl enzyme (purified PPADH). The reaction was performed in 1 cm-cuvettes. The compounds were mixed in the cuvette used for the experiment, which was placed in the photometer and data recording was started. The enzyme solution was added only immediately before the start of the measurement. The activity of the enzyme was determined by photometric detection of the concentration of NADPH after a certain time interval. Measurement was carried out at a temperature of 25°C, a wavelength of 340 nm and over a time interval of 1 min. Table 2: enzymatic activity of PPADH regarding the reduction of different substrates determined by photometry
# [3] = target: T1, alcohol dehydrogenase from Pichia pastoris (PPADH); experiment: photometric assay, oxidation of alcohols by purified PPADH (NADP+, 340 nm); assay type: biochemical, Pichia pastoris GS 115; details: for specific activity: purified PPADH, 10 mM substrate, 0.2 mM NADP+, tris HCl pH 9, 25°C; for relative activity: 6.6 U/mg set to 100%
# Experimental: as §1
# as §2, with “min.” for “min. Table 2: enzymatic activity of PPADH regarding the reduction of different substrates determined by photometry”
# [4] = acetophenone derivatives, related to the alcohol formed
SMILES,specific activity [2] [U/mg],specific activity [3] [U/mg],also measured
COC(C)(CC(C)=O)c1ccccc1 (racemic) [NOD-VI-405],–,–,"level of turnover ([1]; CF3-ketone derivatives): +++ (+++ =20-55 %); turnover ([1]; CF3-ketone derivatives, alcohol formed related to the reduction of (S)-ketone): 20.3%"
CC(=O)CC(O)(c1ccc(Cl)cc1)C(F)(F)F (racemic) [Nod362],–,–,level of turnover ([1]; CF3-ketone derivatives): +++++ (+++++ = 75 - 100 %); turnover ([1]; CF3-ketone derivatives): quant.
CC(=O)CC(O)(c1ccccc1)C(F)(F)F (racemic) [compound 4],37.5,–,relative activity [2]: 97.2%
"CCC(O)CO (stereo not shown) [1,2-butanediol]",–,< 0.5,–
"CC(O)CO (stereo not shown) [1,2-propanediol]",–,< 0.5,–
CC(O)c1ccc(Cl)cc1 (stereo not shown) [1-(4-chlorophenyl)ethanol],–,< 0.5,–
C=CC(O)CC (stereo not shown) [1-penten-3-ol],–,< 0.5,–
"O=C(c1ccccc1Br)C(F)(F)F [2'-Bromo-2,2,2-trifluoroacetophenone]",–,–,"level of turnover ([1]; acetophenone derivatives): + (+=1-5%); turnover [1, 4]: <5%"
COc1ccccc1C(C)=O [2'-Methoxyacetophenone],–,–,"level of turnover ([1]; acetophenone derivatives): + (+=1-5%); turnover [1, 4]: <5%"
CC(=O)c1ccccc1Br [2'-bromoacetophenone],–,–,"level of turnover ([1]; acetophenone derivatives): + (+=1-5%); turnover [1, 4]: <5%"
"O=C(c1ccccc1)C(F)(F)F [2,2,2-Trifluoroacetophenone]",–,–,"level of turnover ([1]; acetophenone derivatives): +++ (+++=20-55%); turnover [1, 4]: 24.2%"
"CC(O)C(C)O (stereo not shown) [2,3-butanediol]",–,< 0.5,–
O=C(CO)c1ccccc1 [2-Hydroxyacetophenone],–,–,"level of turnover ([1]; acetophenone derivatives): + (+=1-5%); turnover [1, 4]: <5%"
COCC(=O)c1ccccc1 [2-Methoxyacetophenone],–,–,"level of turnover ([1]; acetophenone derivatives): - (-=0-1%); turnover [1, 4]: <1%"
OC1C=CCCC1 (stereo not shown) [2-cyclohexen-1-ol],–,< 0.5,–
CCCCC(C)=O [2-hexanone],< 0.5,–,–
CCCCCCCC(C)=O [2-nonanone],< 0.5,–,–
CCCCCCC(C)=O [2-octanone],< 0.5,–,–
CC(CO)c1ccccc1 (stereo not shown) [2-phenyl-1-propanol],–,< 0.5,–
"CC1CC(=O)CC(C)(C)C1 (stereo not shown) [3,3,5-trimethylcyclohexanone]",< 0.5,–,–
"O=C(c1ccc(Cl)cc1)C(F)(F)F [4'-Chloro-2,2,2-trifluoro acetophenone]",–,–,"level of turnover ([1]; acetophenone derivatives): ++ (++=5-20%); turnover [1, 4]: 12.4%"
CCC(=O)C(O)CC (stereo not shown) [4-hydoxy-3-hexanone],< 0.5,–,–
COC(C)(C)CC(C)=O [4-methoxy-4-metyhl-2-pentanone],< 0.5,–,–

SMILES,specific activity [2] [U/mg],specific activity [3] [U/mg],also measured
CC(=O)CC(C)C [4-methyl-2-pentanone],< 0.5,–,–
CC(C)=C1CC[C@@H](C)CC1=O [(+)-pulegon],< 0.5,–,–
C=C(C)[C@@H]1CC=C(C)C(=O)C1 [(-)-carvone],< 0.5,–,–
CC(C)[C@@H]1CC[C@@H](C)CC1=O [(-)-menthone],< 0.5,–,–
C[C@@H](O)c1ccccc1 [(R)-(+)-1-phenylethanol],–,< 0.5,–
CCCCCC[C@@H](C)O [(R)-(-)-2-octanol],–,< 0.5,–
C=CCC[C@@H](C)O [(R)-(-)-5-hexen-2-ol],–,< 0.5,–
CC[C@H](N)CO [(S)-(+)-2-amino-1-butanol],–,< 0.5,–
CC[C@H](C)O [(S)-(+)-2-butanol],–,< 0.5,–
CC(=O)CC(O)(c1ccc(F)cc1)C(F)(F)F (stereo not shown) [Nod363 F4],–,–,level of turnover ([1]; CF3-ketone derivatives): +++++ (+++++ = 75 - 100 %); turnover ([1]; CF3-ketone derivatives): quant.
CC(C)=O [acetone],< 0.5,–,–
CC(=O)CCc1ccccc1 [benzylacetone],< 0.5,–,–
OCc1ccccc1 [benzylalcohol],–,< 0.5,–
"O=Cc1ccccc1 [compound 1, benzaldehyde]",38.6,–,relative activity [2]: 100.0%
CC(=O)c1ccccc1 [compound 2],0.06,–,relative activity [2]: 0.2%
O=C(c1ccccc1)C(F)(F)F [compound 3],0.10,–,relative activity [2]: 0.3%
CCCC=O [compound 5],68.0,–,relative activity [2]: 176.2%
CCCC(C)C=O (stereo not shown) [compound 6],96.1,–,relative activity [2]: 248.9%
CCCCCC=O [compound 7],28.5,–,relative activity [2]: 73.9%
CCC/C=C/C=O [compound 8],37.5,–,relative activity [2]: 97.2%
CC(C)=CCC/C(C)=C/C=O [compound 9],17.8,–,relative activity [2]: 46.1%
CC(C)=CCCC(C)CC=O (stereo not shown) [compound 10],27.8,–,relative activity [2]: 71.9%
CCOC(=O)C(Cl)C(C)=O (stereo not shown) [compound 11],5.7,–,relative activity [2]: 14.7%

SMILES,specific activity [2] [U/mg],specific activity [3] [U/mg],also measured
CCOC(=O)CC(=O)CCl [compound 12],38.0,–,relative activity [2]: 98.3%
CCCC(=O)CC(=O)OCC [compound 13],0.5,–,relative activity [2]: 1.3%
CC(=O)CC(C)=O [compound 14],3.3,–,relative activity [2]: 8.5%
C[C@@H](CO)c1ccccc1 [compound 15],–,1.06,relative activity [3]: 16.0%
OCCc1ccccc1Br [compound 16],–,1.94,relative activity [3]: 29.3%
CCCCO [compound 17],–,1.11,relative activity [3]: 16.7%
CCCC(C)CO (stereo not shown) [compound 18],–,2.04,relative activity [3]: 30.9%
CCCC(C)O (stereo not shown) [compound 19],–,2.53,relative activity [3]: 38.3%
C/C=C/C(C)O (stereo not shown) [compound 20],–,1.29,relative activity [3]: 19.5%
CCCCC(C)O (stereo not shown) [compound 22],–,3.62,relative activity [3]: 54.9%
CCCC[C@H](C)O [compound 23],–,6.61,relative activity [3]: 100.0%
C=CCC[C@H](C)O [compound 24],–,3.79,relative activity [3]: 57.4%
CCCCC[C@H](C)O [compound 25],–,2.09,relative activity [3]: 31.6%
CCCCCCC(C)O (stereo not shown) [compound 26],–,0.57,relative activity [3]: 8.7%
CC(C)=CCCC(C)=CCO [compound 27],–,2.16,relative activity [3]: 32.7%
CC(C)=CCCC(C)=CCO [compound 28],–,1.19,relative activity [3]: 18.0%
OC1CCCCC1 [cyclohexanol],–,< 0.5,–
O=C1C=CCCC1 [cyclohexen-1-on],< 0.5,–,–
"CC1(C)COC(=O)C1=O [dihydro-4,4-dimethyl-2,3-furandion]",< 0.5,–,–
CCOC(C)=O [ethylacetate],< 0.5,–,–
CC12CCC(C1)C(C)(C)C2=O (stereo not shown) [fenchon],< 0.5,–,–
C=CC(O)CCCCC (stereo not shown) [octen-3-ol],–,< 0.5,–
CCC(=O)c1ccccc1 [propiophenone],< 0.5,–,–
